Reference: patent publication US10934267B2, “Alpha-tea salt forms: compositions and uses for treating disease” (Research Development Foundation, priority 2013, dated 2021)

What was measured:
[1] = cited from earlier work; for Class (safety and pharmaceutical acceptability of the counter-ions): salt forming base; for Counter Ion Class: Table 6 summary
[2] = salt forming base; cited from earlier work
[3] = Static humidity experiments, gravimetric weight change; assay type: physicochemical
From the text: Formation of hydrates can be a very slow kinetic process. A second approach to identify hydrate formation is performing static humidity experiments and monitor gravimetrically for weight change.

[4] = Stability of stressed salts and free acid by HPLC total area normalization; conditions: for Stability compared to free acid: Table 6 summary, in solution
Protocol: The scaled up salts and free acid were challenged by heat (solids stored at 25 and 60° C. for 1 week), oxidation (solids stored in oxygen headspace at 25° C. for 1 week), light (solids exposed≥1×ICH International Conference on Harmonization of Technical Requirements for Registration of Pharmaceuticals for Human Use UV confirmatory conditions), and solutions (HPLC diluent-methanol) at 25 and 40° C. for 1 week.
These samples were analyzed, along with unstressed controls, by HPLC to characterize their stability.
Salt candidates were analyzed by total area normalization (TAN). The samples were dissolved in methanol at a concentration of 0.8 mg/mL.
The three salts (lysine, arginine, and tris) were challenged using heat (solids stored at 25 and 60° C. for 1 week), oxidation (solids stored in oxygen headspace at 25° C. for 1 week), light (UV source under ICH confirmatory conditions>200 Whr/m^2), and solutions (in HPLC diluent) at 25 and 40° C. for 1 week. Stressed samples were analyzed using HPLC to determine their impurity profiles.

[5] = Hygroscopicity - Dynamic Vapor Sorption (DVS); conditions: for Hydration properties DVS: hydrate formed: Table 6 summary; for DVS total weight gain: at 95% RH, 25° C.
Protocol: DVS is a gravimetric screening technique that measures how quickly and how much of a solvent (water) is adsorbed by a sample. The relative humidity or vapor concentration surrounding the sample is varied while the change in mass of the sample is measured. […] The mass values at each relative humidity step are used to generate the isotherm. Isotherms are divided in two components: sorption for increasing humidity steps and desorption for decreasing humidity steps.
Samples were analyzed using a TA Q2000 automated dynamic vapor sorption analyzer. The samples were dried at 40° C. for 5 hours and then cooled to 25° C. with a dry nitrogen purge over them until they no longer lost mass at 0% RH.

physchem = conditions: buffered water, pH 4, aqueous buffer, thermodynamic from solid
Protocol: Milligram size (2 mg) quantities of each sample were placed into a vial. Buffered water (pH 4, 7, and 10) was added and the vials were stirred for a few minutes, followed by visual observation for remaining solids. The solvent was incrementally added until the solids were dissolved, or a maximum volume of solvent (10 mL) was added and the experiment was terminated.

4T1 mammary tumor = assay: Anti-tumor efficacy in 4T1 mouse model of metastatic mammary cancer; assay type: in vivo, BALB/c mice; conditions: diet with 3 g/kg chow (0.3% w/w), started 9 days post tumor injection
From the text: The lysine salt was incorporated into standard mouse chow at an amount of 3 g/kg chow (0.3% w/w) by Harlan Teklad, Madison Wis. Half of the mice were placed on an α-TEA-Lys diet after the tumors were established (9 days post tumor injection.) and the rest placed on an analogous nutrient diet without α-TEA-Lys which served as the control group.

[6] = Oxidation Ambient (oxygen headspace, 25° C., 1 week)
[7] = Photo Stability Exposed (UV, ICH confirmatory conditions)
[8] = Solid State Ambient (25° C., 1 week)
[9] = Solution 40° C. Methanol, 1 week
[10] = Solution Ambient Methanol, 1 week

Structure (SMILES) | Class (safety and pharmaceutical acceptability of the counter-ions) [1] | HLPC Total Area Normalization - Area % Purity [4, 6] [Area %] | HLPC Total Area Normalization - Area % Purity ([4]; Photo Stability Dark Control) [Area %] | HLPC Total Area Normalization - Area % Purity [4, 7] [Area %] | HLPC Total Area Normalization - Area % Purity ([4]; Solid State 60° C., 1 week) [Area %] | HLPC Total Area Normalization - Area % Purity [4, 8] [Area %] | HLPC Total Area Normalization - Area % Purity [4, 9] [Area %] | HLPC Total Area Normalization - Area % Purity [4, 10] [Area %] | other results
C[N+](C)(C)CCO [Choline] | I | – | – | – | – | – | – | – | pKa [2]: >11
N=C(N)NCCC[C@H](N)C(=O)O [L-Arginine] | I | – | – | – | – | – | – | – | –
NCCCC[C@H](N)C(=O)O [L-Lysine] | I | – | – | – | – | – | – | – | –
[Ca+2].[OH-].[OH-] [calcium hydroxide] | I | – | – | – | – | – | – | – | –
CN(C)CCO [deanol, N,N-dimethylethanolamine, N,N-dimethylethanolamine] | – | – | – | – | – | – | – | – | pKa [2]: 8.8
[Mg+2].[OH-].[OH-] [magnesium hydroxide] | I | – | – | – | – | – | – | – | –
[K+].[OH-] [potassium hydroxide] | I | – | – | – | – | – | – | – | –
Cc1c(C)c2c(c(C)c1OCC(=O)O)CCC(C)(CCCC(C)CCCC(C)CCCC(C)C)O2.N=C(N)NCCC[C@H](N)C(=O)O (stereo not drawn) [α-TEA arginine salt] | – | 98.4 | 97.9 | 98.5 | 98.6 | 98.6 | 98.2 | 98.4 | Hydration properties Static 75% RH 30 Days, weight gain ([3]; 75% RH): 0.7 wt %; static humidity weight gain ([3]; 75% RH, 33 days): 0.7%; static humidity weight gain ([3]; 84% RH, 9 days): 2.3%; Counter Ion Class [1]: I; Stability compared to free acid [4]: more stable; Hydration properties DVS: hydrate formed [5]: hemihydrate
Cc1c(C)c2c(c(C)c1OCC(=O)O)CC[C@@](C)(CCC[C@H](C)CCC[C@H](C)CCCC(C)C)O2 [α-TEA free acid, α-tocopheryloxyacetic acid, reference compound] | – | 97.8 | 97.7 | 98.2 | 98.0 | 97.8 | 94.6 | 96.0 | solubility (physchem): < 0.2 mg/mL; DVS conclusion on hydrate formation / deliquescence ([5]; 0 to 95% RH): does not form hydrates or exhibit deliquescence; DVS total weight gain [5]: about 0.2%
Cc1c(C)c2c(c(C)c1OCC(=O)O)CCC(C)(CCCC(C)CCCC(C)CCCC(C)C)O2.NCCCC[C@H](N)C(=O)O (stereo not drawn) [α-TEA lysine salt] | – | 98.8 | 98.7 | 98.8 | 98.7 | 98.8 | 98.2 | 98.8 | average tumor size compared to control diet (4T1 mammary tumor): significant decrease in average tumor size; complete tumor regression, share of the mice treated (4T1 mammary tumor): about 25%; survival compared to control diet (Kaplan-Meier) (4T1 mammary tumor): increased survival; Hydration properties Static 75% RH 30 Days, weight gain ([3]; 75% RH): 0.6 wt% wt %; static humidity weight gain ([3]; 75% RH, 33 days): 0.6%; static humidity weight gain ([3]; 84% RH, 9 days): 1.8%; Counter Ion Class [1]: I; Stability compared to free acid [4]: more stable; Hydration properties DVS: hydrate formed [5]: hydrate; DVS total weight gain [5]: about 12%; DVS residual weight after desorption cycle ([5]; corresponds to a putative hydrate): 2 weight %
Cc1c(C)c2c(c(C)c1OCC(=O)O)CCC(C)(CCCC(C)CCCC(C)CCCC(C)C)O2.NC(CO)(CO)CO (stereo not drawn) [α-TEA tris salt] | – | 98.5 | 98.2 | 98.7 | 98.4 | 98.6 | 98.2 | 98.5 | Hydration properties Static 75% RH 30 Days, weight gain ([3]; 75% RH): 4.0 wt %; static humidity weight gain ([3]; 75% RH, 33 days): 4.0%; Stability compared to free acid [4]: more stable; Hydration properties DVS: hydrate formed [5]: hemihydrate
